Measurements published in ChEMBL document CHEMBL3885861, “Open TG-GATES”.

Species on record: Rattus norvegicus
Assay: Open TG-GATES - Regimen: Single
Assay type: toxicity, organism-based, Sprague-Dawley
Set-up: regimen Single, gender Male, age 6 weeks
Conditions: in vivo, ip, 0 mg/kg, route intraperitoneal injection, dose 0 ug/Kg, dose level Control; for APTT / Bas / Eos / Fbg / Hb / Ht / Lym / MCH / MCHC / MCV / Mono / Neu / PT / Plat / RBC / Ret / WBC: tissue Blood; for KIDNEY_L / KIDNEY_R / KIDNEY_TOTAL: tissue Kidney; for LIVER: tissue Liver; for A/G / ALP / ALT / AST / BUN / CRE / Ca / Cl / DBIL / GLC / IP / K / LDH / Na / PL / RALB / TBIL / TC / TG / TP / gamma-GTP: tissue Plasma

Question: How did the TERMINAL_BW (3 h) turn out when `CC(=O)N[C@H]1[C@@H](O[C@@H]2O[C@H](CC(O)[C@H]3O[C@@H](n4ccc(=O)[nH]c4=O)[C@H](O)[C@@H]3O)[C@H](O)[C@H](O)[C@H]2NC(=O)/C=C/CC(C)C)O[C@H](CO)[C@@H](N)[C@@H]1O` (some centres not stated) [TUNICAMYCIN] was run?
Answer: 221.9 g

Question: What about the APTT (3 h) of the same molecule?
Answer: 21.5 s

Question: What about the Bas (3 h) of the same molecule?
Answer: 0%

Question: And the Eos (3 h)?
Answer: 0.5%

Question: What about the Fbg (3 h) of the same molecule?
Answer: 293.8 mg/dL

Question: And the Hb (3 h)?
Answer: 13 g/dL

Question: And the Ht (3 h)?
Answer: 39.6%

Question: What about the Lym (3 h) of the same molecule?
Answer: 77%

Question: And the MCH (3 h)?
Answer: 21.1 pg

Question: And the MCHC (3 h)?
Answer: 32.9%

Question: And the MCV (3 h)?
Answer: 64.1 fL

Question: And the Mono (3 h)?
Answer: 2.8%

Question: And the Neu (3 h)?
Answer: 18.8%

Question: What about the PT (3 h) of the same molecule?
Answer: 15.8 s

Question: And the Plat (3 h)?
Answer: 103.5 x10_4/uL

Question: And the RBC (3 h)?
Answer: 617.8 x10_4/ul

Question: What about the Ret (3 h) of the same molecule?
Answer: 8.1%

Question: What about the WBC (3 h) of the same molecule?
Answer: 129.5 x10_2/uL

Question: And the KIDNEY_L (3 h)?
Answer: 1 g

Question: And the KIDNEY_R (3 h)?
Answer: 1 g

Question: And the KIDNEY_TOTAL (3 h)?
Answer: 2 g

Question: And the LIVER (3 h)?
Answer: 10.3 g

Question: What about the A/G (3 h) of the same molecule?
Answer: 1.2

Question: And the ALP (3 h)?
Answer: 1530.2 IU/L

Question: And the ALT (3 h)?
Answer: 45 IU/L

Question: What about the AST (3 h) of the same molecule?
Answer: 75 IU/L

Question: And the BUN (3 h)?
Answer: 14 mg/dL

Question: What about the CRE (3 h) of the same molecule?
Answer: 0.2 mg/dL

Question: What about the Ca (3 h) of the same molecule?
Answer: 10.6 mg/dL

Question: What about the Cl (3 h) of the same molecule?
Answer: 106.5 meq/L

Question: What about the DBIL (3 h) of the same molecule?
Answer: 0 mg/dL

Question: What about the GLC (3 h) of the same molecule?
Answer: 175.2 mg/dL

Question: And the IP (3 h)?
Answer: 8.4 mg/dL

Question: And the K (3 h)?
Answer: 4.4 meq/L

Question: What about the LDH (3 h) of the same molecule?
Answer: 176.5 IU/L

Question: What about the Na (3 h) of the same molecule?
Answer: 140.2 meq/L

Question: What about the PL (3 h) of the same molecule?
Answer: 127.5 mg/dL

Question: What about the RALB (3 h) of the same molecule?
Answer: 2.9 g/dL

Question: And the TBIL (3 h)?
Answer: 0.0125 mg/dL

Question: And the TC (3 h)?
Answer: 71.8 mg/dL

Question: What about the TG (3 h) of the same molecule?
Answer: 72.5 mg/dL

Question: What about the TP (3 h) of the same molecule?
Answer: 5.3 g/dL

Question: And the gamma-GTP (3 h)?
Answer: 1 IU/L

Question: And the TERMINAL_BW (6 h)?
Answer: 222.7 g

Question: What about the APTT (6 h) of the same molecule?
Answer: 22.4 s

Question: And the Bas (6 h)?
Answer: 0%

Question: What about the Eos (6 h) of the same molecule?
Answer: 0.4%

Question: What about the Fbg (6 h) of the same molecule?
Answer: 306.8 mg/dL

Question: What about the Hb (6 h) of the same molecule?
Answer: 13 g/dL

Question: And the Ht (6 h)?
Answer: 40.2%

Question: And the Lym (6 h)?
Answer: 75.2%

Question: And the MCH (6 h)?
Answer: 20.6 pg

Question: What about the MCHC (6 h) of the same molecule?
Answer: 32.4%

Question: And the MCV (6 h)?
Answer: 63.4 fL

Question: What about the Mono (6 h) of the same molecule?
Answer: 2%

Question: What about the Neu (6 h) of the same molecule?
Answer: 22%

Question: What about the PT (6 h) of the same molecule?
Answer: 15.4 s

Question: What about the Plat (6 h) of the same molecule?
Answer: 114.6 x10_4/uL

Question: What about the RBC (6 h) of the same molecule?
Answer: 634.2 x10_4/ul

Question: And the Ret (6 h)?
Answer: 7.9%

Question: And the WBC (6 h)?
Answer: 100.9 x10_2/uL

Question: What about the KIDNEY_L (6 h) of the same molecule?
Answer: 1 g

Question: What about the KIDNEY_R (6 h) of the same molecule?
Answer: 1 g

Question: What about the KIDNEY_TOTAL (6 h) of the same molecule?
Answer: 2 g

Question: What about the LIVER (6 h) of the same molecule?
Answer: 10.1 g

Question: What about the A/G (6 h) of the same molecule?
Answer: 1.2

Question: And the ALP (6 h)?
Answer: 1339.6 IU/L

Question: What about the ALT (6 h) of the same molecule?
Answer: 39.6 IU/L

Question: And the AST (6 h)?
Answer: 68.6 IU/L

Question: And the BUN (6 h)?
Answer: 11 mg/dL

Question: And the CRE (6 h)?
Answer: 0.1 mg/dL

Question: What about the Ca (6 h) of the same molecule?
Answer: 10.9 mg/dL

Question: And the Cl (6 h)?
Answer: 104.8 meq/L

Question: And the DBIL (6 h)?
Answer: 0 mg/dL

Question: What about the GLC (6 h) of the same molecule?
Answer: 186.8 mg/dL

Question: What about the IP (6 h) of the same molecule?
Answer: 9.2 mg/dL

Question: What about the K (6 h) of the same molecule?
Answer: 4.2 meq/L

Question: And the LDH (6 h)?
Answer: 142.8 IU/L

Question: What about the Na (6 h) of the same molecule?
Answer: 142.4 meq/L

Question: What about the PL (6 h) of the same molecule?
Answer: 133 mg/dL

Question: What about the RALB (6 h) of the same molecule?
Answer: 2.9 g/dL

Question: And the TBIL (6 h)?
Answer: 0.018 mg/dL

Question: And the TC (6 h)?
Answer: 74.2 mg/dL

Question: What about the TG (6 h) of the same molecule?
Answer: 63.2 mg/dL

Question: What about the TP (6 h) of the same molecule?
Answer: 5.4 g/dL

Question: And the gamma-GTP (6 h)?
Answer: 1.2 IU/L

Question: And the TERMINAL_BW (9 h)?
Answer: 216.2 g

Question: What about the APTT (9 h) of the same molecule?
Answer: 22.6 s

Question: What about the Bas (9 h) of the same molecule?
Answer: 0%

Question: And the Eos (9 h)?
Answer: 0.6%

Question: What about the Fbg (9 h) of the same molecule?
Answer: 299.2 mg/dL

Question: And the Hb (9 h)?
Answer: 13.1 g/dL

Question: What about the Ht (9 h) of the same molecule?
Answer: 40.6%

Question: What about the Lym (9 h) of the same molecule?
Answer: 81.2%

Question: And the MCH (9 h)?
Answer: 20.3 pg

Question: What about the MCHC (9 h) of the same molecule?
Answer: 32.2%

Question: And the MCV (9 h)?
Answer: 63 fL

Question: And the Mono (9 h)?
Answer: 1.8%

Question: What about the Neu (9 h) of the same molecule?
Answer: 15.8%

Question: And the PT (9 h)?
Answer: 15.7 s

Question: What about the Plat (9 h) of the same molecule?
Answer: 118.2 x10_4/uL

Question: And the RBC (9 h)?
Answer: 643.6 x10_4/ul

Question: What about the Ret (9 h) of the same molecule?
Answer: 7.7%

Question: What about the WBC (9 h) of the same molecule?
Answer: 98.9 x10_2/uL

Question: And the KIDNEY_L (9 h)?
Answer: 1 g

Question: And the KIDNEY_R (9 h)?
Answer: 1 g

Question: And the KIDNEY_TOTAL (9 h)?
Answer: 1.9 g

Question: And the LIVER (9 h)?
Answer: 8.6 g

Question: And the A/G (9 h)?
Answer: 1.2

Question: And the ALP (9 h)?
Answer: 1451.4 IU/L

Question: What about the ALT (9 h) of the same molecule?
Answer: 37.6 IU/L

Question: And the AST (9 h)?
Answer: 71 IU/L

Question: And the BUN (9 h)?
Answer: 11.2 mg/dL

Question: And the CRE (9 h)?
Answer: 0.1 mg/dL

Question: And the Ca (9 h)?
Answer: 10.3 mg/dL

Question: And the Cl (9 h)?
Answer: 104.8 meq/L

Question: And the DBIL (9 h)?
Answer: 0 mg/dL

Question: What about the GLC (9 h) of the same molecule?
Answer: 195.4 mg/dL

Question: What about the IP (9 h) of the same molecule?
Answer: 9.6 mg/dL

Question: What about the K (9 h) of the same molecule?
Answer: 4.2 meq/L

Question: What about the LDH (9 h) of the same molecule?
Answer: 158.4 IU/L

Question: And the Na (9 h)?
Answer: 141.8 meq/L

Question: What about the PL (9 h) of the same molecule?
Answer: 128 mg/dL

Question: And the RALB (9 h)?
Answer: 2.8 g/dL

Question: What about the TBIL (9 h) of the same molecule?
Answer: 0.024 mg/dL

Question: And the TC (9 h)?
Answer: 74.2 mg/dL

Question: And the TG (9 h)?
Answer: 54 mg/dL

Question: What about the TP (9 h) of the same molecule?
Answer: 5.2 g/dL

Question: And the gamma-GTP (9 h)?
Answer: 1 IU/L

Question: What about the TERMINAL_BW (24 h) of the same molecule?
Answer: 234.3 g

Question: And the APTT (24 h)?
Answer: 21.6 s

Question: And the Bas (24 h)?
Answer: 0%

Question: And the Eos (24 h)?
Answer: 1%

Question: What about the Fbg (24 h) of the same molecule?
Answer: 295.2 mg/dL

Question: What about the Hb (24 h) of the same molecule?
Answer: 12.7 g/dL

Question: What about the Ht (24 h) of the same molecule?
Answer: 39.1%

Question: And the Lym (24 h)?
Answer: 78.6%

Question: What about the MCH (24 h) of the same molecule?
Answer: 20.2 pg

Question: What about the MCHC (24 h) of the same molecule?
Answer: 32.4%

Question: And the MCV (24 h)?
Answer: 62.4 fL

Question: And the Mono (24 h)?
Answer: 3.6%

Question: And the Neu (24 h)?
Answer: 16.2%

Question: What about the PT (24 h) of the same molecule?
Answer: 16.2 s

Question: And the Plat (24 h)?
Answer: 119.3 x10_4/uL

Question: And the RBC (24 h)?
Answer: 626.8 x10_4/ul

Question: And the Ret (24 h)?
Answer: 7.3%

Question: And the WBC (24 h)?
Answer: 88.7 x10_2/uL

Question: And the KIDNEY_L (24 h)?
Answer: 1.1 g

Question: And the KIDNEY_R (24 h)?
Answer: 1.1 g

Question: What about the KIDNEY_TOTAL (24 h) of the same molecule?
Answer: 2.1 g

Question: What about the LIVER (24 h) of the same molecule?
Answer: 10.8 g

Question: What about the A/G (24 h) of the same molecule?
Answer: 1.2

Question: And the ALP (24 h)?
Answer: 1584.8 IU/L

Question: And the ALT (24 h)?
Answer: 42.2 IU/L

Question: What about the AST (24 h) of the same molecule?
Answer: 71.2 IU/L

Question: And the BUN (24 h)?
Answer: 16.6 mg/dL

Question: What about the CRE (24 h) of the same molecule?
Answer: 0.1 mg/dL

Question: And the Ca (24 h)?
Answer: 10.5 mg/dL

Question: What about the Cl (24 h) of the same molecule?
Answer: 105.2 meq/L

Question: What about the DBIL (24 h) of the same molecule?
Answer: 0 mg/dL

Question: And the GLC (24 h)?
Answer: 184.4 mg/dL

Question: And the IP (24 h)?
Answer: 6.8 mg/dL

Question: And the K (24 h)?
Answer: 4.6 meq/L

Question: What about the LDH (24 h) of the same molecule?
Answer: 146.4 IU/L

Question: And the Na (24 h)?
Answer: 141.2 meq/L

Question: And the PL (24 h)?
Answer: 136 mg/dL

Question: And the RALB (24 h)?
Answer: 3.1 g/dL

Question: What about the TBIL (24 h) of the same molecule?
Answer: 0.008 mg/dL

Question: What about the TC (24 h) of the same molecule?
Answer: 73.6 mg/dL

Question: What about the TG (24 h) of the same molecule?
Answer: 70.8 mg/dL

Question: And the TP (24 h)?
Answer: 5.5 g/dL

Question: What about the gamma-GTP (24 h) of the same molecule?
Answer: 1.8 IU/L
